In patent US8158606B2, “β-L-2′-deoxynucleosides for the treatment of resistant HBV strains and combination therapies” (priority 2002, dated 2012):

Tests used:
in vivo = conditions: rhesus monkey, po, 10 mg/kg
[1] = Bioavailability of the prodrugs of L-dC; conditions: cynomolgus monkey, plasma, po, 10 mg/kg
[2] = Single-dose bioavailability of L-dC in the rhesus monkey
[3] = rhesus monkey, blood, po, 10 mg/kg

With `Nc1ccn([C@@H]2CC(O)[C@H](CO)O2)c(=O)n1` (stereo partly drawn) [L-dC, 2′-Deoxy-β-L-cytidine] the half-life (in vivo) was 3.34 h, the bioavailability [1] was 16.4 ± 5% and the “L-dC as share of drug excreted in the urine” value ([2]; L-dC 10 mg/kg oral) was about 77%. For the same molecule, the “administered oral dose recovered in urine after 48 hours” value ([2]; L-dC 10 mg/kg oral) was 15%, the “administered oral dose recovered in urine within 8 hours” value ([2]; L-dC 10 mg/kg oral) was “Approximately 8.5%” and the CL renal ([2]; rhesus monkey, blood and urine, po, 10 mg/kg) was 4.55 mL/min/kg. The AUC [2, 3] was 12.2 µM·h, the Cmax [2, 3] was 3.23 µM and the Tmax [2, 3] was 0.83 h. The bioavailability [2, 3] was about 16%.
